Counter-ions that a name gives are not always drawn. Like-named read-outs stand apart in the source and are kept apart here.
Tests used:
[1] = molecular target: T1, muscarinic receptors of the cerebral cortex (Rattus norvegicus, UniProt P08482); experiment: biochemical; design: species or system male CD-COOBBS rats; settings: read-out: Antimuscarinic effect. Dissociation constants (KD) for ^3 H-pirenzepine binding
T1 sequence (P08482 1-460): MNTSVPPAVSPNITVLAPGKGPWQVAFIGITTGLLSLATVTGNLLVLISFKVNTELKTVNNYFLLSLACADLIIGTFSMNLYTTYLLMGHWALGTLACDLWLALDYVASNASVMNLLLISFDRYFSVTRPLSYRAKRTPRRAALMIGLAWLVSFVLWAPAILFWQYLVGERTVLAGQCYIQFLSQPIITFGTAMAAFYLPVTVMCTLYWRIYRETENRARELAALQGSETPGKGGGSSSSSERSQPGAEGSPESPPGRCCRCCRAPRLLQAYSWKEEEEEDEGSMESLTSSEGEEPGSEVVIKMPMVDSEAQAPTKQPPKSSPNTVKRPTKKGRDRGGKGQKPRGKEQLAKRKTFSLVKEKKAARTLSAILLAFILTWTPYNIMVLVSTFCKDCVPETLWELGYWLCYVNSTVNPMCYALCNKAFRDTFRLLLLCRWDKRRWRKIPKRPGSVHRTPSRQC

[2] = molecular target: T2, isolated guinea pig ileum (bethanechol induced contractions) (Cavia porcellus, UniProt H0W1Z3); experiment: antispasmodic activity on isolated guinea pig ileum with bethanechol as spasmogen; design: species or system guinea pig (Dunkin Hartley); settings: cumulative bethanechol 0.3-30 μM, antagonist 60 min before, Tyrode solution, 37° C.; KB from dose-ratio; read-out: Antispasmodic activity. Dissociation constants (KB) for bethanechol induced contractions in the guinea pig ileum
T2 construct: a 2 cm piece of terminal ileum was rapidly excised; from tissue; host or cells: guinea pig terminal ileum (Dunkin Hartley)

[3] = competition against 0.5 nM ^3 H-pirenzepine, rat cerebral cortex homogenate, 45 min at 30° C., pH 7.4, corrected for radioligand occupancy shift

T2 sequence (H0W1Z3 1-590): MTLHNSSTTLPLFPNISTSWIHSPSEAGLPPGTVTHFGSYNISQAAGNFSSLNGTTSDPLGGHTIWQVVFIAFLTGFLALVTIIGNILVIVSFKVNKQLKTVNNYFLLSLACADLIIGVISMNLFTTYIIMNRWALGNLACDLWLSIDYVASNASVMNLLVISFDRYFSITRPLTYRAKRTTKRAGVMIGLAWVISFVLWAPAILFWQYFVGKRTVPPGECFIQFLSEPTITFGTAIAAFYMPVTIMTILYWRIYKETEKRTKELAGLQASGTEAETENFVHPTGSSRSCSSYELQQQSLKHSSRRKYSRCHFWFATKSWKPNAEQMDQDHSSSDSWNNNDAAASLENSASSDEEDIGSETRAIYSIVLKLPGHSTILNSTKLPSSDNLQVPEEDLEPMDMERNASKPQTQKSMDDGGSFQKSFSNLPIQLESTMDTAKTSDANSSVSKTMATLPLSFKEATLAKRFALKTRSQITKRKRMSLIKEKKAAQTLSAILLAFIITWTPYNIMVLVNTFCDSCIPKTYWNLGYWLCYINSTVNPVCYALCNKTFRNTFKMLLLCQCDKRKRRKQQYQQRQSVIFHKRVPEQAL

OC(CCN1C=NCCC1)(c1ccccc1)C1CCCCC1 (stereo not drawn) [Compound 1, 1-(3-Phenyl-3-cyclohexyl-3-hydroxy)propyl-1,4,5,6-tetrahydropyrimidine hydrochloride]
Kd [1, 3]: 4.2 nM | Kb [2]: 1 nM

CC1=NCCN1CCC(O)(c1ccccc1)C1CCCCC1 (stereo not drawn) [Compound 2, 1-(3-Phenyl-3-cyclohexyl-3-hydroxy)propyl-2-methyl-2-imidazoline hydrochloride]
Kd [1, 3]: 3 nM | Kb [2]: 1.7 nM

NC1=NCC(OC(=O)C2(C3CCCCC3)CCCCC2)CN1 (stereo not drawn) [Compound 15, 2-Amino-1,4,5,6-tetrahydropyrimidin-5-yl 1-cyclohexylcyclohexane-1-carboxylate formate]
Kd [1]: 2.7 nM | Kb [2]: 0.46 nM

CC1=NCCN1CCCC(O)(c1ccccc1)C1CCCCC1 (stereo not drawn) [Compound 21, 1-(4-Phenyl-4-cyclohexyl-4-hydroxy)butyl-2-methyl-2-imidazoline hydrochloride]
Kd [1, 3]: 7.4 nM | Kb [2]: 3.4 nM

OC(CCCN1C=NCCC1)(c1ccccc1)C1CCCCC1 (stereo not drawn) [Compound 22, 1-(4-Phenyl-4-cyclohexyl-4-hydroxy)butyl-1,4,5,6-tetrahydropyrimidine hydrochloride]
Kd [1, 3]: 5 nM | Kb [2]: 1.5 nM

OC(CCN1C=NCC1)(c1ccccc1)C1CCCCC1 (stereo not drawn) [Compound 23, 1-(3-phenyl-3-cyclohexyl-3-hydroxy)propyl-2-imidazoline hydrochloride]
Kd [1, 3]: 14 nM | Kb [2]: 6.2 nM

Source: patent US4973592A, “1,3-diazocycloalkenes as muscarinic receptor blocking agents” (Istituto de Angeli, priority 1987, dated 1990)
